From patent US8575135B2 (Gilead Sciences, Inc., priority 2011, dated 2013)
Like-named read-outs stand apart in the source and are kept apart here.

Experiments:
Assay in all cases: microbe, parasite or virus in culture
Conditions in all cases: Hepatitis C virus
[1] = test system: stable HCV 1a RLuc replicon cells (genotype 1a H77 replicon); type: cell-based
Experimental: (§1) Evaluation of Cell-Based Anti-HCV Activity:
(§2) Antiviral potency (EC50) was determined using a Renilla luciferase (RLuc)-based HCV replicon reporter assay. […] To perform the assay for genotype 2a (with M31 present in NS5A) or 2b, NS5A chimeric genotype 2a JFH-1 replicons that encodes a RLuc-Neo reporter and either genotype 2a J6 strain NS5A gene or genotype 2b MD2b-1 strain NS5A gene (both with M31 present) respectively, were either transiently transfected (t) into Huh-Lunet cells or were established as stably replicating replicon cells (s) is provided. Either cells were dispensed into 384-well plates for EC50 assays. To perform the assay for genotype 3 and 4, NS5A chimeric genotype 1b Con1 replicons that encodes a Pi-RLuc reporter and either genotype 3a S52 strain NS5A gene or genotype 4a ED43 strain NS5A gene respectively, were transiently transfected (t) into Huh-Lunet cells, which were subsequently dispensed into 384-well plates. Compounds were dissolved in DMSO at a concentration of 10 mM and diluted in DMSO either manually or using an automated pipeting instrument. Serially 3-fold diluted compounds were either manually mixed with cell culture media and added to the seeded cells or directly added to the cells using an automated instrument. […] 72 hours later, cells were lysed and Renilla luciferase activity quantified as recommended by the manufacturer (Promega-Madison, Wis.). Non-linear regression was performed to calculate EC50 values.

[2] = test system: stable HCV 2a JFH-1 Rluc replicon cells (L31 present in NS5A); type: cell-based
[3] = test system: NS5A chimeric genotype 1b Con1 replicon with genotype 3a S52 strain NS5A gene; type: cell-based, HCV
Experimental: as §1, §2

[4] = test system: NS5A chimeric genotype 2a JFH-1 replicon with genotype 2a J6 strain NS5A gene (M31 present); type: cell-based, HCV
Experimental: as §1, §2

[5] = test system: NS5A chimeric genotype 2a JFH-1 replicon with genotype 2b MD2b-1 strain NS5A gene (M31 present); type: cell-based, HCV
Experimental: as §1, §2

[6] = test system: NS5A chimeric genotype 1b Con1 replicon with genotype 4a ED43 strain NS5A gene; type: cell-based, HCV
[7] = test system: 1a Pi-Rluc replicon with Q30R in genotype 1a NS5A; type: cell-based, HCV
Experimental: as §2
To determine the antiviral potency (EC50) against resistance mutants, resistance mutations, including M28T, Q30R, Q30H, L31M, and Y93C in genotype 1a NS5A and Y93H in genotype 1b NS5A, were introduced individually into either 1a Pi-Rluc or 1b Pi-Rluc replicons by site directed mutagenesis. Replicon RNA of each resistant mutant was transiently transfected into Huh-7-derived cured-51 cells and antiviral potency was determined on these transfected cells as described above.

Compound	EC50 ([1]; read-out: 1a)	EC50 ([1]; read-out: 1a (nM))	EC50 ([2]; read-out: 2a JFH)	EC50 ([2]; read-out: 2a JFH (nM))	EC50 ([3]; read-out: 3a)	EC50 ([3]; read-out: 3a (nM))	EC50 ([4]; read-out: 2a J6)	EC50 ([4]; read-out: 2a J6 (s) (nM))	EC50 ([5]; read-out: 2b)	EC50 ([5]; read-out: 2b (s) (nM))	EC50 ([6]; read-out: 4a)	EC50 ([6]; read-out: 4a (s) (nM))	EC50 ([6]; read-out: 4a (t) (nM))	EC50 ([4]; read-out: 2a Jb (t) (nM))	EC50 ([5]; read-out: 2b (t) (nM))	EC50 ([7]; read-out: 1a Q30R)	EC50 ([7]; read-out: 1a Q30R (nM))
COC[C@H]1C[C@@H](c2nc3ccc4cc5c(cc4c3[nH]2)OCc2cc(-c3ccc4nc([C@@H]6CCCN6C(=O)[C@@H](NC(=O)OC)C(C)C)[nH]c4c3)ccc2-5)N(C(=O)[C@@H](NC(=O)OC)C(C)C)C1	< 1 nM	0.003 nM	< 1 nM	0.021 nM	1 to 4.99 nM	1.09 nM	> 5 nM	44.4 nM	> 5 nM	44.4 nM	< 1 nM	0.025 nM	0.015 nM				
COC[C@@H]1C[C@@H](c2nc3c([nH]2)-c2cc4c(cc2CC3)-c2ccc(-c3cnc([C@@H]5CCCN5C(=O)[C@@H](NC(=O)OC)C(C)C)[nH]3)cc2CO4)N(C(=O)[C@@H](NC(=O)OC)C(C)C)C1 [Compound 493]	< 1 nM	0.036 nM	< 1 nM	0.008 nM	< 1 nM	0.05 nM	> 5 nM	5.04 nM	< 1 nM	0.65 nM	< 1 nM	0.018 nM	0.013 nM				
CCC(=O)N[C@@H](C(=O)N1CCC[C@H]1c1ncc(-c2ccc3c(c2)COc2cc4c(ccc5nc([C@@H]6CCCN6C(=O)[C@@H](NC(=O)OC)C(C)C)[nH]c54)cc2-3)[nH]1)c1ccccc1 [Compound 499]	< 1 nM	0.057 nM	< 1 nM	0.008 nM	< 1 nM	0.01 nM	< 1 nM	0.206 nM	< 1 nM	0.04 nM	< 1 nM	0.005 nM	0.021 nM				
COC(=O)N[C@H](C(=O)N1CCC[C@H]1c1ncc(-c2ccc3c(c2)COc2cc4c(cc2-3)CCc2nc([C@@H]3CCCN3C(=O)[C@H](NC(=O)C3CC3)c3ccccc3)[nH]c2-4)[nH]1)C(C)C [Compound 503]	< 1 nM	0.062 nM	< 1 nM	0.012 nM	< 1 nM	0.016 nM	< 1 nM	0.155 nM	< 1 nM	0.037 nM	< 1 nM	0.025 nM	0.028 nM				
COC[C@H]1C[C@@H](c2nc3ccc4cc5c(cc4c3[nH]2)OCc2cc(-c3cnc([C@@H]4CCCN4C(=O)[C@H](NC(=O)C4CC4)c4ccccc4)[nH]3)ccc2-5)N(C(=O)[C@@H](NC(=O)OC)C(C)C)C1 [Compound 510]	< 1 nM	0.021 nM	< 1 nM	0.009 nM	< 1 nM	0.008 nM	< 1 nM	0.018 nM	< 1 nM	0.02 nM	< 1 nM	0.072 nM	0.016 nM	0.007 nM	0.017 nM		
COC(=O)N[C@H](C(=O)N1CCC[C@H]1c1ncc(-c2ccc3c(c2)COc2cc4c(ccc5nc([C@@H]6C[C@H]7C[C@H]7N6C(=O)[C@@H](NC(=O)OC)C(C)C)[nH]c54)cc2-3)[nH]1)C(C)C [Compound 518]	< 1 nM	0.005 nM	< 1 nM	0.006 nM	< 1 nM	0.005 nM	1 to 4.99 nM	2.49 nM	< 1 nM	0.643 nM	< 1 nM	0.011 nM	0.004 nM				
COC[C@H]1C[C@@H](c2ncc(-c3ccc4c(c3)COc3cc5c(ccc6nc([C@@H]7CCCN7C(=O)[C@H](NC(=O)OC)c7ccccc7)[nH]c65)cc3-4)[nH]2)N(C(=O)[C@@H](NC(=O)OC)[C@@H](C)OC)C1 [Compound 626]	< 1 nM	0.021 nM	< 1 nM	0.009 nM	< 1 nM	0.027 nM	< 1 nM		< 1 nM					0.021 nM	0.021 nM	< 1 nM	0.041 nM
COC(=O)N[C@H](C(=O)N1[C@@H](C)CC[C@H]1c1ncc(-c2ccc3c(c2)COc2cc4c(ccc5nc([C@@H]6CCCN6C(=O)[C@H](NC(=O)OC)c6ccccc6)[nH]c54)cc2-3)[nH]1)C(C)C [Example NQ, Methyl {(2S)-1-[(2S,5S)-2-(5-{2-[(2S)-1-{(2R)-2-[(methoxycarbonyl)amino]-2-phenylacetyl}pyrrolidin-2-yl]-1,11-dihydroisochromeno[4′,3′:6,7]naphtho[1,2-d]imidazol-9-yl}-1H-imidazol-2-yl)-5-methylpyrrolidin-1-yl]-3-methyl-1-oxobutan-2-yl}carbamate]	< 1 nM	0.017 nM	< 1 nM	0.006 nM	< 1 nM	0.013 nM	< 1 nM		< 1 nM	0.012 nM				0.064 nM	0.013 nM	< 1 nM	0.039 nM
CC[C@H](C)[C@H](NC(=O)OC)C(=O)N1C[C@@H](COC)C[C@H]1c1ncc(-c2ccc3c(c2)COc2cc4c(ccc5nc([C@@H]6C[C@H](COC)CN6C(=O)[C@@H](NC(=O)OC)[C@@H](C)CC)[nH]c54)cc2-3)[nH]1 [Example OJ]	< 1 nM	0.018 nM	< 1 nM	0.013 nM	< 1 nM	0.259 nM	< 1 nM	0.502 nM	< 1 nM	0.813 nM	< 1 nM	0.017 nM	0.026 nM				
CC[C@H](C)[C@H](NC(=O)OC)C(=O)N1C[C@@H](COC)C[C@H]1c1nc2ccc3cc4c(cc3c2[nH]1)OCc1cc(-c2cnc([C@@H]3CC[C@H](C)N3C(=O)[C@@H](NC(=O)OC)C(C)C)[nH]2)ccc1-4 [Example ON, methyl {(2S)-1-[(2S,4S)-2-(5-{2-[(2S,5S)-1-{(2S,3S)-2-[(methoxycarbonyl)amino]-3-methylpentanoyl}-4-(methoxymethyl)-2-yl]-1,11-dihydroisochromeno[4′,3′:6,7]naphtho[1,2-d]imidazol-9-yl}-1H-imidazol-2-yl)-5-methylpyrrolidin-1-yl]-3-methyl-1-oxobutan-2-yl}carbamate]	< 1 nM	0.005 nM	< 1 nM	0.004 nM			< 1 nM							0.068 nM	0.086 nM	< 1 nM	
COC(=O)N[C@H](C(=O)N1CCCC1c1ncc(-c2ccc3c(c2)COc2cc4c(ccc5nc([C@@H]6C[C@@H]7CCC[C@@H]7N6C(=O)[C@@H](NC(=O)OC)C(C)C)[nH]c54)cc2-3)[nH]1)C(C)C (stereo partly drawn) [Example PO, methyl {(2S)-1-[2-(5-{2-[(2S,3aS,6aS)-1-{(2S)-2-[(methoxycarbonyl)amino]-3-methylbutanoyl}octahydrocyclopenta[b]pyrrol-2-yl]-1,11-dihydroisochromeno[4′,3′:6,7]naphtho[1,2-d]imidazol-9-yl}-1H-imidazol-2-yl)pyrrolidin-1-yl]-3-methyl-1-oxobutan-2-yl}carbamate]	< 1 nM	0.013 nM	< 1 nM	0.011 nM	< 1 nM	0.012 nM	1 to 4.99 nM	3.13 nM	< 1 nM	0.47 nM	< 1 nM	0.013 nM	0.013 nM				
